US7378387B2, “Method of suppressing immune response by reducing intracellular content of glutathione in macrophages and monocytes” (Ajinomoto Co., Inc., priority 1997, dated 2008)

Key:
[1] = test system: reductive glutathione in MΦ; assay: GSH content in MΦ by ACAS after NAC drinking and/or IL-2 administration (Example 8); type: in vivo, DBA/2 female mice; conditions: NAC 1 mg/ml in city water; IL-2 intraperitoneally twice a day every two days for two weeks; day 14
Experimental: Three-hundred microliters of a cell suspension adjusted concentration of 3×10^5 cells/ml in an RPMI 1640 medium (phenol red-free) were charged into a chambered coverglass (#136439, supplied by Nunc), and incubated at 37° C. for 2 hours using a CO2 incubator. The culture solution was washed with the medium, and 300 μl of monochlorobimane (supplied by Molecular Plobe) adjusted to 10 μM in the same medium were added thereto. The mixture was charged into a CO2 incubator of 37° C., and the reaction was conducted for 30 minutes. The fluorescent intensity was measured with ACAS. In ACAS, a UV laser was used.
Two groups, namely, a group of 8-week-old DBA/2 female mice which were caused to freely drink city water as in Example 6, and a group of the same female mice which were caused to freely drink city water containing 1 mg/ml of NAC, were prepared. Further, the two groups of the-above-mentioned mice to which human recombinant IL-2 in an amount of 2 pg/0.5 ml/h was intraperitoneally administered twice a day, every two days for two weeks were provided.

[2] = test system: dextran sulfate-induced inflammatory bowel disease; assay: Dextran sulfate-induced inflammatory bowel disease in γc knock out mice (Example 14); type: in vivo
Experimental: To 3-week-old γc knock out mice with +/− genotypes were administered 20 μg[…] of (NAC-OMe)2 three times a week for 2 weeks. On day 16, the free drinking of 1% dextran sulfate water was started. […] The γc knock out mice and their wild-type male mice (+/Y- and −/Y) and female mice (+/+, +/− and −/−) were caused to freely drink water containing 1% dextran sulfate as a inflammatory bowel disease model.

IL-6 [3] = assay: IL-6 in macrophage culture supernatant, advanced tumor-bearing mice (Example 4); type: in vivo, CDF1 mice; conditions: oral 1 mg/0.5 ml/h for 10 days, COLON 26 mice; control mice 5,200 pg/ml
Experimental: (§1) A stimulator was added to 1×10^6 MΦ, and the incubation was conducted at 37° C. for 2 days in a CO2 incubator. After centrifugation, the culture supernatant was collected.
(§2) The amount of IL-6 was determined using IL-6 dependent mouse hybridoma MH60 cells (J. Eur. Immunol., vol. 18, p. 951, 1988). One hundred microliters of the culture supernatant were added to 100 μl of the MH60 cell suspension adjusted to 1×10^5 cells/ml in a 10% FCS-containing RPMI medium, and the mixed solution was incubated at 37° C. for 2 days in a CO2 incubator. Subsequently, 10 μl of MTT (supplied by Sigma Co.) solution adjusted to a concentration of 5 mg/ml in the same medium were added thereto, and the reaction was conducted at 37° C. for 5 hours. After the completion of the reaction, the centrifugation was conducted. The supernatant (160 μl) was removed, and 100 μl of a mixture of hydrochloric acid and propanol were added to the residue. The suspension was conducted using a pipetman to dissolve the cells. Immediately after the dissolution, an absorbance of 570 nm was measured with an immunometer (supplied by Bio-Rad).
The COLON 26 transplantable tumor was implanted subcutaneously in the back portion of CDF1 mice at a density of 5×10^5 cells/mouse. […] Glutathione ethyl ester was orally administered to the mice every day in a dosage of 1 mg/0.5 ml/h. This oral administration was continued for 10 days. […]

IL-6 [4] = assay: IL-6 in culture supernatant of macrophage-like cells from rheumatoid arthritis patients (Example 17); type: cell-based, human; conditions: added at 2 mM
Experimental: as §1, §2
By the same manner as in Example 3, macrophage-like cells were collected from tissues of rheumatoid arthritis patients, and were then suspended and adjusted in a phenol red-free RPMI 1640 culture medium supplemented with 10% fetal calf serum to 3×10^6 cells/ml. […]

[5] = test system: reduced glutathione in intraperitoneal macrophages; assay: Reduced glutathione in intraperitoneal macrophages of NOD mice by ACAS (Example 22); type: in vivo; conditions: doses given per substance
[6] = test system: COLON 26 transplantable tumor; assay: Survival of COLON 26 advanced tumor-bearing cachectic mice (Example 4); type: in vivo, CDF1 mice; conditions: oral 1 mg/0.5 ml/h for 10 days, COLON 26 mice; control mice 42

## CC(=O)N[C@@H](CS)C(=O)O [NAC, N-acetylcysteine, reference compound]
[1]
  content of reductive glutathione in MΦ (ACAS): markedly increased

## COC(=O)[C@H](CSSC[C@H](NC(C)=O)C(=O)OC)NC(C)=O [(NAC-OMe)2, N,N′-diacetylcystine dimethyl ester]
[2]; +/+ mice, non-administration 80%
  occurrence rate of the inflammatory bowel disease: 60%
[2]; +/− mice, 20 μg/h three times a week for 2 weeks, 1% dextran sulfate water from day 16, non-administration 100%
  occurrence rate of the inflammatory bowel disease, Day 30: 16.6%
[2]; +/− mice, 20 μg/h three times a week for 2 weeks, 1% dextran sulfate water, non-administration 57%
  survival rate: 100%

## CCOC(=O)CNC(=O)[C@H](CS)NC(=O)CC[C@H](N)C(=O)O [GSH-OEt, glutathione monoethyl ester]
IL-6 [3]
  amount of IL-6 in macrophage culture supernatant: 642 pg/mL
IL-6 [4]
  IL-6 in the culture supernatant of the macrophages: prominently decreased
[5]; intraperitoneal dosing on alternate days from age 3-4 weeks
  relative ratio of oxidative macrophages compared with saline-dosed NOD mice: same action is also observed
[5]; oral dosing on alternate days from age 3-4 weeks
  relative ratio of oxidative macrophages compared with saline-dosed NOD mice: same action is also observed
[5]; oral dosing on alternate days from age 3-4 weeks, listed as glutathione ethyl ester
  relative ratio of oxidative macrophages compared with saline-dosed NOD mice: decreased
[6]
  average number of survival days: 148 days
